# From article PMC5218480 (PLoS ONE, 2017)
# System: MV-4-11 cells
# Experiment: Gene expression microarray analysis (Affymetrix PrimeView) and GSEA
# Format: cell-based, human
# Design: RFU PODN (11730768_x_at) / Fold change /veh PODN (11730768_x_at) / RFU LINC00158 (11744669_a_at) / Fold change /veh LINC00158 (11744669_a_at) / RFU DUSP10 (11751237_a_at) / Fold change /veh DUSP10 (11751237_a_at) / RFU ID3 (11757404_x_at) / Fold change /veh ID3 (11757404_x_at) / RFU PLEKHG5 (11737974_s_at) / Fold change /veh PLEKHG5 (11737974_s_at) / RFU LRRC4B (11730491_at) / Fold change /veh LRRC4B (11730491_at) / RFU GIMAP4 (11747438_a_at) / Fold change /veh GIMAP4 (11747438_a_at) / RFU KRT8 (11758183_x_at) / Fold change /veh KRT8 (11758183_x_at) / RFU CNN1 (11734310_a_at) / Fold change /veh CNN1 (11734310_a_at) / RFU VPS37D (11726825_at) / Fold change /veh VPS37D (11726825_at) / RFU C10orf10 (11716522_x_at) / Fold change /veh C10orf10 (11716522_x_at) / RFU KIR2DL2 /// KIR2DL4 /// KIR2DL5A /// KIR2DL5B /// KIR2DS1 /// KIR2DS2 /// KIR2DS3 /// KIR2DS4 /// KIR3DL3 /// KIR3DL3 /// KIR3DS1 (11738374_at) / Fold change /veh KIR2DL2 /// KIR2DL4 /// KIR2DL5A /// KIR2DL5B /// KIR2DS1 /// KIR2DS2 /// KIR2DS3 /// KIR2DS4 /// KIR3DL3 /// KIR3DL3 /// KIR3DS1 (11738374_at) / RFU C1QL1 (11718748_at) / Fold change /veh C1QL1 (11718748_at) / RFU TMPRSS4 (11747572_a_at) / Fold change /veh TMPRSS4 (11747572_a_at) / RFU HAMP (11756126_x_at) / Fold change /veh HAMP (11756126_x_at) / RFU RNFT2 (11725882_a_at) / Fold change /veh RNFT2 (11725882_a_at) / RFU NR4A2 (11747474_a_at) / Fold change /veh NR4A2 (11747474_a_at) / RFU ABCC12 (11746883_a_at) / Fold change /veh ABCC12 (11746883_a_at) / RFU TMEM136 (11760407_x_at) / Fold change /veh TMEM136 (11760407_x_at) / RFU CLDN22 /// WWC2 (11732394_at) / Fold change /veh CLDN22 /// WWC2 (11732394_at) / RFU HLA-DPB1 (11760878_x_at) / Fold change /veh HLA-DPB1 (11760878_x_at) / RFU SPINT1 (11716480_a_at) / Fold change /veh SPINT1 (11716480_a_at) / RFU GAP43 (11754022_s_at) / Fold change /veh GAP43 (11754022_s_at) / RFU A4GNT (11735810_at) / Fold change /veh A4GNT (11735810_at) / RFU PRB3 (11715151_x_at) / Fold change /veh PRB3 (11715151_x_at) / RFU TUBB4B (11761932_at) / Fold change /veh TUBB4B (11761932_at) / RFU CAPN14 (11732068_a_at) / Fold change /veh CAPN14 (11732068_a_at) / RFU TMCC2 (11721928_a_at) / Fold change /veh TMCC2 (11721928_a_at) / RFU IRGQ (11745062_a_at) / Fold change /veh IRGQ (11745062_a_at) / RFU FAM174B (11720279_a_at) / Fold change /veh FAM174B (11720279_a_at) / RFU TMPRSS4 (11748680_a_at) / Fold change /veh TMPRSS4 (11748680_a_at) / RFU FAM212B (11763350_a_at) / Fold change /veh FAM212B (11763350_a_at) / RFU PLEKHG5 (11743358_a_at) / Fold change /veh PLEKHG5 (11743358_a_at) / RFU ZSCAN30 (11745921_a_at) / Fold change /veh ZSCAN30 (11745921_a_at) / RFU CMKLR1 (11741424_a_at) / Fold change /veh CMKLR1 (11741424_a_at) / RFU LOC101060620 /// MAPK8IP1 (11723275_at) / Fold change /veh LOC101060620 /// MAPK8IP1 (11723275_at) / RFU SPTSSB (11747773_x_at) / Fold change /veh SPTSSB (11747773_x_at) / RFU PRSS12 (11739890_at) / Fold change /veh PRSS12 (11739890_at) / RFU BIN1 (11741810_x_at) / Fold change /veh BIN1 (11741810_x_at) / RFU WNT11 (11732464_a_at) / Fold change /veh WNT11 (11732464_a_at) / RFU C10orf10 (11716521_a_at) / Fold change /veh C10orf10 (11716521_a_at) / RFU C5orf56 (11738089_at) / Fold change /veh C5orf56 (11738089_at) / RFU CYB561 (11721691_x_at) / Fold change /veh CYB561 (11721691_x_at) / RFU ANKRD19P (11752326_a_at) / Fold change /veh ANKRD19P (11752326_a_at) / RFU OR2T12 /// OR2T33 /// OR2T8 (11738714_s_at) / Fold change /veh OR2T12 /// OR2T33 /// OR2T8 (11738714_s_at) / RFU VCAN (11748164_a_at) / Fold change /veh VCAN (11748164_a_at) / RFU JSRP1 (11732532_at) / Fold change /veh JSRP1 (11732532_at) / RFU KRTAP10-11 (11738290_x_at) / Fold change /veh KRTAP10-11 (11738290_x_at) / RFU MYO3A (11730013_a_at) / Fold change /veh MYO3A (11730013_a_at) / RFU EBF3 (11725865_a_at) / Fold change /veh EBF3 (11725865_a_at) / RFU CAMK2N1 (11719241_x_at) / Fold change /veh CAMK2N1 (11719241_x_at) / RFU C5orf56 (11738088_a_at) / Fold change /veh C5orf56 (11738088_a_at) / RFU OLFML3 (11715873_a_at) / Fold change /veh OLFML3 (11715873_a_at) / RFU LOC100653217 /// NTM (11731650_a_at) / Fold change /veh LOC100653217 /// NTM (11731650_a_at) / RFU MAPK11 (11762145_a_at) / Fold change /veh MAPK11 (11762145_a_at) / RFU FIZ1 (11724087_x_at) / Fold change /veh FIZ1 (11724087_x_at) / RFU OASL (11726364_x_at) / Fold change /veh OASL (11726364_x_at) / RFU SOX15 (11748057_x_at) / Fold change /veh SOX15 (11748057_x_at) / RFU CD79A (11719716_a_at) / Fold change /veh CD79A (11719716_a_at) / RFU HIST1H1D (11736915_at) / Fold change /veh HIST1H1D (11736915_at) / RFU CASKIN2 (11723855_a_at) / Fold change /veh CASKIN2 (11723855_a_at) / RFU LOC730098 (11760151_x_at) / Fold change /veh LOC730098 (11760151_x_at) / RFU OR4N2 (11742367_at) / Fold change /veh OR4N2 (11742367_at) / RFU PRRT2 (11749266_a_at) / Fold change /veh PRRT2 (11749266_a_at) / RFU SNX32 (11753110_a_at) / Fold change /veh SNX32 (11753110_a_at) / RFU CDHR5 (11726645_a_at) / Fold change /veh CDHR5 (11726645_a_at) / RFU RCAN1 (11760418_a_at) / Fold change /veh RCAN1 (11760418_a_at) / RFU FAM167A (11723789_a_at) / Fold change /veh FAM167A (11723789_a_at) / RFU FAM26E (11764081_at) / Fold change /veh FAM26E (11764081_at) / RFU ISYNA1 (11749810_s_at) / Fold change /veh ISYNA1 (11749810_s_at) / RFU ACY1 (11761880_at) / Fold change /veh ACY1 (11761880_at) / RFU 11764098_at / Fold change /veh 11764098_at / RFU SAMD14 (11745864_x_at) / Fold change /veh SAMD14 (11745864_x_at) / RFU NPB (11741838_a_at) / Fold change /veh NPB (11741838_a_at) / RFU TMPRSS6 (11731388_a_at) / Fold change /veh TMPRSS6 (11731388_a_at) / RFU KRTAP10-2 (11738614_at) / Fold change /veh KRTAP10-2 (11738614_at) / RFU ARHGAP8 /// PRR5-ARHGAP8 (11727945_x_at) / Fold change /veh ARHGAP8 /// PRR5-ARHGAP8 (11727945_x_at) / RFU KRTAP5-7 /// NADSYN1 (11734609_at) / Fold change /veh KRTAP5-7 /// NADSYN1 (11734609_at) / RFU RASL12 (11751679_a_at) / Fold change /veh RASL12 (11751679_a_at) / RFU CDKN2B (11736163_a_at) / Fold change /veh CDKN2B (11736163_a_at) / RFU PRF1 (11729649_at) / Fold change /veh PRF1 (11729649_at) / RFU, ZNF638 /// ZNF638-IT1 / Fold change vs veh, ZNF638 /// ZNF638-IT1 / RFU, PANK3 / Fold change vs veh, PANK3 / RFU, SH3YL1 / Fold change vs veh, SH3YL1 / RFU, ZEB2 / Fold change vs veh, ZEB2 / RFU, NRIP1 / Fold change vs veh, NRIP1 / RFU, PTTG1IP / Fold change vs veh, PTTG1IP / RFU, CAPN2 / Fold change vs veh, CAPN2 / RFU, MED14 / Fold change vs veh, MED14 / RFU, SNORA58 / Fold change vs veh, SNORA58 / RFU, C1orf63 / Fold change vs veh, C1orf63 / RFU, LRRFIP1 / Fold change vs veh, LRRFIP1 / RFU, NDUFAF7 / Fold change vs veh, NDUFAF7 / RFU, SLC12A2 / Fold change vs veh, SLC12A2 / RFU, IBTK / Fold change vs veh, IBTK / RFU, ESF1 / Fold change vs veh, ESF1 / Fold change vs veh, TMEM50B / RFU, TAOK1 / Fold change vs veh, TAOK1 / RFU, ACBD3 / Fold change vs veh, ACBD3 / RFU, TMA16 / Fold change vs veh, TMA16 / RFU, RWDD3 / Fold change vs veh, RWDD3 / RFU, BCAT1 / Fold change vs veh, BCAT1 / RFU, EDEM3 / Fold change vs veh, EDEM3 / RFU, TMEM33 / Fold change vs veh, TMEM33 / RFU, WDR75 / Fold change vs veh, WDR75 / RFU, AHCTF1 / Fold change vs veh, AHCTF1 / RFU, TFRC / Fold change vs veh, TFRC / RFU, ZDHHC17 / Fold change vs veh, ZDHHC17 / RFU, NOM1 / Fold change vs veh, NOM1 / RFU, ARL8B / Fold change vs veh, ARL8B / RFU, ZBTB11 / Fold change vs veh, ZBTB11 / RFU, TAMM41 / Fold change vs veh, TAMM41 / RFU, KIAA1704 /// LOC100996395 / Fold change vs veh, KIAA1704 /// LOC100996395 / RFU, ING1 / Fold change vs veh, ING1 / RFU, TRMT61B / Fold change vs veh, TRMT61B / RFU, FUBP3 / Fold change vs veh, FUBP3 / RFU, TP53 / Fold change vs veh, TP53 / RFU, TNKS2 / Fold change vs veh, TNKS2 / RFU, ZFP14 / Fold change vs veh, ZFP14 / RFU, ACTR2 / Fold change vs veh, ACTR2 / RFU, PPP3R1 / Fold change vs veh, PPP3R1 / RFU, PIK3R1 / Fold change vs veh, PIK3R1 / RFU, HNRNPA1 / Fold change vs veh, HNRNPA1 / RFU, RNF170 / Fold change vs veh, RNF170 / RFU, ZNF28 / Fold change vs veh, ZNF28 / RFU, RNGTT / Fold change vs veh, RNGTT / RFU, OGT / Fold change vs veh, OGT / RFU, BRD1 / Fold change vs veh, BRD1 / RFU, MARS / Fold change vs veh, MARS / RFU, ZNF655 / Fold change vs veh, ZNF655 / RFU, FAHD1 / Fold change vs veh, FAHD1 / RFU, BDP1 / Fold change vs veh, BDP1 / RFU, LRRCC1 / Fold change vs veh, LRRCC1 / RFU, ARID1A / Fold change vs veh, ARID1A / RFU, ZNF146 / Fold change vs veh, ZNF146 / RFU, ZNF330 / Fold change vs veh, ZNF330 / RFU, GPN3 / Fold change vs veh, GPN3 / RFU, C9orf123 / Fold change vs veh, C9orf123 / RFU, N4BP2L2 / Fold change vs veh, N4BP2L2 / RFU, ARFIP1 / Fold change vs veh, ARFIP1 / RFU, FAM179B / Fold change vs veh, FAM179B / RFU, BCL10 / Fold change vs veh, BCL10 / RFU, UHRF1BP1L / Fold change vs veh, UHRF1BP1L / RFU, BET1 / Fold change vs veh, BET1 / RFU, CNOT2 / Fold change vs veh, CNOT2 / RFU, ZNF268 / Fold change vs veh, ZNF268 / Fold change vs veh, ZNF507 / RFU, DGCR2 / Fold change vs veh, DGCR2 / RFU, WDSUB1 / Fold change vs veh, WDSUB1 / Fold change vs veh, HSP90B1 /// MIR3652 / RFU, ADSS / Fold change vs veh, ADSS / RFU, GK / Fold change vs veh, GK / RFU, ZNF148 / Fold change vs veh, ZNF148 / RFU, TAF9 / Fold change vs veh, TAF9 / RFU, SLC1A5 / Fold change vs veh, SLC1A5 / RFU, SLMO2 / Fold change vs veh, SLMO2 / RFU, ABCC4 / Fold change vs veh, ABCC4 / RFU, LOC101060439 /// RAP1B / Fold change vs veh, LOC101060439 /// RAP1B / RFU, RFX7 / Fold change vs veh, RFX7 / RFU, GTPBP10 / Fold change vs veh, GTPBP10 / RFU, CNEP1R1 / Fold change vs veh, CNEP1R1 / RFU, BIVM-ERCC5 /// ERCC5 / Fold change vs veh, BIVM-ERCC5 /// ERCC5 / RFU, ILF3 / Fold change vs veh, ILF3 / RFU 11762660_at / Fold change /veh 11762660_at / RFU VCAN (11757783_s_at) / Fold change /veh VCAN (11757783_s_at) / RFU DDX43 (11728927_at) / Fold change /veh DDX43 (11728927_at) / RFU KRT8 (11758188_x_at) / Fold change /veh KRT8 (11758188_x_at) / RFU NKD1 (11759106_at) / Fold change /veh NKD1 (11759106_at) / RFU SRD5A1 (11742802_a_at) / Fold change /veh SRD5A1 (11742802_a_at) / RFU TPSAB1 /// TPSB2 (11721975_s_at) / Fold change /veh TPSAB1 /// TPSB2 (11721975_s_at) / RFU GSTM3 (11746129_a_at) / Fold change /veh GSTM3 (11746129_a_at) / RFU IL23R (11737362_x_at) / Fold change /veh IL23R (11737362_x_at) / RFU TMEM51 (11727254_a_at) / Fold change /veh TMEM51 (11727254_a_at) / RFU PIWIL2 (11732686_x_at) / Fold change /veh PIWIL2 (11732686_x_at) / RFU ORM1 (11744905_x_at) / Fold change /veh ORM1 (11744905_x_at) / RFU CCDC152 (11743942_at) / Fold change /veh CCDC152 (11743942_at) / RFU ECM1 (11717891_a_at) / Fold change /veh ECM1 (11717891_a_at) / RFU IL23R (11748794_a_at) / Fold change /veh IL23R (11748794_a_at) / RFU TNFAIP8L3 (11732012_x_at) / Fold change /veh TNFAIP8L3 (11732012_x_at) / RFU MBOAT4 (11741988_at) / Fold change /veh MBOAT4 (11741988_at) / RFU 11764193_at / Fold change /veh 11764193_at / RFU TMEM53 (11763286_at) / Fold change /veh TMEM53 (11763286_at) / RFU MAGEB2 (11727129_at) / Fold change /veh MAGEB2 (11727129_at) / RFU TMEM200A (11744735_a_at) / Fold change /veh TMEM200A (11744735_a_at) / RFU CCDC152 (11751479_a_at) / Fold change /veh CCDC152 (11751479_a_at) / RFU FAM211A (11726209_a_at) / Fold change /veh FAM211A (11726209_a_at) / RFU RGS16 (11746705_a_at) / Fold change /veh RGS16 (11746705_a_at) / RFU VCAN (11755009_s_at) / Fold change /veh VCAN (11755009_s_at) / RFU RHOB (11743442_s_at) / Fold change /veh RHOB (11743442_s_at) / RFU RGS16 (11720943_a_at) / Fold change /veh RGS16 (11720943_a_at) / RFU RGS16 (11720944_at) / Fold change /veh RGS16 (11720944_at) / RFU, VPS4B / Fold change vs veh, VPS4B / RFU, CREB1 / Fold change vs veh, CREB1 / RFU, DNAJC13 / Fold change vs veh, DNAJC13 / RFU, GNAQ / Fold change vs veh, GNAQ / RFU, CDK5R1 / Fold change vs veh, CDK5R1 / RFU, ZRANB3 / Fold change vs veh, ZRANB3 / RFU, CUL4A / Fold change vs veh, CUL4A / RFU, CCNY / Fold change vs veh, CCNY / RFU, UFL1 / Fold change vs veh, UFL1 / RFU, COG3 / Fold change vs veh, COG3 / RFU, DIAPH2 / Fold change vs veh, DIAPH2 / RFU, SKA2 / Fold change vs veh, SKA2 / RFU, AFF3 / Fold change vs veh, AFF3 / RFU, LMF1 / Fold change vs veh, LMF1 / RFU, IPO11 / Fold change vs veh, IPO11 / RFU, DFFB / Fold change vs veh, DFFB / RFU, FOXP1 / Fold change vs veh, FOXP1 / RFU, CARD8 / Fold change vs veh, CARD8 / RFU, STRN3 / Fold change vs veh, STRN3 / RFU, ADK / Fold change vs veh, ADK / RFU, RASSF2 / Fold change vs veh, RASSF2 / RFU, WIPF1 / Fold change vs veh, WIPF1 / RFU, LARP1B / Fold change vs veh, LARP1B / RFU, RASA1 / Fold change vs veh, RASA1 / RFU, RB1 / Fold change vs veh, RB1 / RFU, PPFIA1 / Fold change vs veh, PPFIA1 / RFU, MAT2A / Fold change vs veh, MAT2A / RFU, CCT5 / Fold change vs veh, CCT5 / RFU, WDR92 / Fold change vs veh, WDR92 / RFU, CUX1 / Fold change vs veh, CUX1 / RFU, TTC7A / Fold change vs veh, TTC7A / RFU, TMEM135 / Fold change vs veh, TMEM135 / RFU, DEPTOR / Fold change vs veh, DEPTOR / RFU, CPM / Fold change vs veh, CPM / RFU, DNAJB6 / Fold change vs veh, DNAJB6 / RFU, CACNA2D3 / Fold change vs veh, CACNA2D3 / RFU, DTX4 / Fold change vs veh, DTX4 / RFU, TFCP2 / Fold change vs veh, TFCP2 / RFU, GMCL1 /// GMCL1P1 / Fold change vs veh, GMCL1 /// GMCL1P1 / RFU, AEBP2 / Fold change vs veh, AEBP2 / RFU, SNHG1 /// SNORD22 /// SNORD25 /// SNORD26 /// SNORD27 /// SNORD28 /// SNORD29 /// SNORD31 / Fold change vs veh, SNHG1 /// SNORD22 /// SNORD25 /// SNORD26 /// SNORD27 /// SNORD28 /// SNORD29 /// SNORD31 / Fold change (Aza/veh), C12orf56 (ProbeSet 11735607_a_at) / Fold change (ACY-1035/veh), C12orf56 (ProbeSet 11735607_a_at) / Fold change (Aza/veh), FGFR1OP (ProbeSet 11751329_s_at) / Fold change (ACY-1035/veh), FGFR1OP (ProbeSet 11751329_s_at) / Fold change (Aza/veh), VPS36 (ProbeSet 11739960_a_at) / Fold change (ACY-1035/veh), VPS36 (ProbeSet 11739960_a_at) / RFU SYPL1 (11715823_x_at) / Fold change /veh SYPL1 (11715823_x_at) / RFU IGFBP7 (11715501_s_at) / Fold change /veh IGFBP7 (11715501_s_at) / RFU REEP3 (11722064_at) / Fold change /veh REEP3 (11722064_at) / RFU IGLL1 (11728026_x_at) / Fold change /veh IGLL1 (11728026_x_at): dose or concentration left out as unconfirmed
# Conditions: ProbeSet 11728271_at; LIST B
structure (smiles),measurement,value
Nc1ccc(-c2cccs2)cc1NC(=O)c1ccc2c(c1)cc(C1CC1)n2CCN1CCOCC1 [ACY-1035],"Fold change vs veh, ZNF330",0.88
